# Laboratory results published in patent US20080280933A1, “BENZIMIDAZOLYL COMPOUNDS” (priority 2006, published 2008).
# Biological target: T1, mGluR2 receptor (metabotropic glutamate receptor 2) (Homo sapiens, UniProt Q14416)
# T1 construct: expressed in transfected cells
# Experiment: mGluR2 Potentiator Screen, FLIPR, EC10-EC20 glutamate challenge
# Format: cell-based
# Settings: EC50 (uM)
# Description: Procedure for mGluR2 Potentiator Screen NLB Methods EC10-EC20 Challenge Cell Culture and Plating:
# Cells used for this screen are HEK cells stably transfected with the mGluR2 receptor (metabotropic glutamate receptor 2) and the Gα15 G protein. Clones were identified by functional activity (FLIPR). Cells are grown in growth media containing: DMEM High Glucose with Glutamine and Na Pyruvate (GIBCO), 10% (v/v) Heat inactivate FBS (GIBCO) G418 500 ug/ml (from 50 mg/ml stock) (GIBCO) and Blasticidin 3 ug/ml (from 5 mg/ml stock made in H2O) (Invitrogen).
# 2 days before the assay cell are trypsinized with 0.25% trysin/EDTA (GIBCO), spun down at 1000 rpm for 5 minutes, resuspended in growth media and plated on polystyrene 384 well black wall/clear bottom poly-D-lysine coated plates at a density of approximately 18,000 cells/well in a volume of 50 μL per well. One day before the assay the growth media is removed from the plates by flicking and replaced with media containing DMEM High Glucose without Glutamine and Na Pyruvate (GIBCO) and 10% (v/v) dialyzed FBS (GIBCO). The reason for the removal of glutamine the day before the assay is to minimize the amount of glutamate that will be present during the assay, as endogenous glutarnate released from the cells can reduce the fluorescent response and interfere with the FLIPR screen.
# FLIPR Methods and Data Analysis:
# On the day of the assay, the FLIPR assay is performed using the following methods:
# The pH is adjusted to 7.4 with 1M NaOH. Prepare a 2 mM (approx.) stock solution of Fluo-4.am (Molecular Probes) dye in DMSO −22 μl DMSO per 50 ug vial (440 μL per 1 mg vial). Make a 1 mM (approx.) flou-4, PA working solution per vial by adding 22 μl of 20% pluronic acid (PA) (Molecular Probes) in DMSO to each 50 ug vial (440 μL per 1 mg vial). Prepare a 250 mM Probenecid (Sigma) stock solution by dissolving 0.71 g into 5 ml 1N NaOH and 5 ml assay buffer (for each liter of assay wash buffer). Make 4 uM (approx.) dye incubation media by adding 2.50 ug vials per 11 ml DMEM high glucose without glutamine (220 ml per 1 mg vial). Add 110 μL probenecid stock per 11 ml (2.5 mM final [concentration]). To the dye media add 3 units/ml of glutamic-pyruvic transaminase (GPT, Sigma) and 3 mM Na Pyruvate. The assay has worked with dye concentrations from 2 uM to 8 uM dye as well. To the assay buffer from drug preparation, add 1.83 mls DMSO and 400 μL. 15.8% P104 (from New Leads biology) per liter for final concentrations of 0.18% DMSO and 0.006% P104. To the assay buffer for cell washing, add probenecid in the same manner and concentration that was used for the dye media.
# Remove growth media from cell plates by flicking. Add 50 μl/well dye solution. Incubate 1 hour at 37° C. and 5% CO2. Remove dye solution and wash 3 times with assay buffer+probenecid (100 μl probenecid stock per 10 ml buffer), leaving 30 μL/well assay buffer. Wait at least 10-15 minutes. Compounds and agonist challenge additions are performed with the FLIPR. The in addition is for test compounds, which are added as 15 μL of 4× [concentration] of potentiator. The second 2nd addition is 15 μL of 4× [concentration] of agonist or challenge. This achieves 1× concentration of all compounds only after 2nd addition. The 1st and 2nd additions are performed separately using the FLIPR, which give 2 different data files. Compounds are pretreated at least 30 minutes before agonist addition.
# Results are analyzed by dividing the peak fluorescent value of the FLIPR response by the […] to achieve a ratio response. The ratios are then analyzed by curve fitting programs. Since potent compounds can give an inverted U dose response curve (due to effects on endogenous glutamate by the potentiators) points are deleted at concentrations higher than the concentration that gives the maximum effect. Maximum values for dose response curves (forced fitting) are derived from standards on the plate.
# Compound Preparation and Glutamate Challenge: […]
# T1 sequence (Q14416 19-872, species assumed): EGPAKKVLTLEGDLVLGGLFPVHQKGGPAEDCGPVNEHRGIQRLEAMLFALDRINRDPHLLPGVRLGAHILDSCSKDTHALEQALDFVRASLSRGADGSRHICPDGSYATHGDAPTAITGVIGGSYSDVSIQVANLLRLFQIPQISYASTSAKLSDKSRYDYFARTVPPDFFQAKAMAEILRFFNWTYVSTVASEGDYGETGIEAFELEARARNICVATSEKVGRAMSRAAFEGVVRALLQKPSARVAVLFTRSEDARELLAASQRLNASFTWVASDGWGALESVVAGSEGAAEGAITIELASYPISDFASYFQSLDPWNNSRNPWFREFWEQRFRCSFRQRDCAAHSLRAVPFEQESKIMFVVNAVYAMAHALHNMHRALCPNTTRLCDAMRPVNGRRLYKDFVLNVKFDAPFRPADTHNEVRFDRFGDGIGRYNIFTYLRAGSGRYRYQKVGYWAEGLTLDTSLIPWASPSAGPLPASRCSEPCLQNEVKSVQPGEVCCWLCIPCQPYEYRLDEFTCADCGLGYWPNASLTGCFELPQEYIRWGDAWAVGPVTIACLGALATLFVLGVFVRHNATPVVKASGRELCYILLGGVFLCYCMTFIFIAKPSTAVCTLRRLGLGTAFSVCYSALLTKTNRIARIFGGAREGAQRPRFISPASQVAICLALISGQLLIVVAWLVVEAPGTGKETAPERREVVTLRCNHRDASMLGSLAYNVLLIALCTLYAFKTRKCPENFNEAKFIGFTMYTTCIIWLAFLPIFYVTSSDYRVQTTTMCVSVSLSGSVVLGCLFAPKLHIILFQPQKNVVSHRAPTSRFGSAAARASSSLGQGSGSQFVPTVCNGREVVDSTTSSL
row,Molecule,EC50 [µM]
1,COc1cccc(C2(C#N)CCN(Cc3nc4ccccc4n3C)CC2)c1 [compound 72],10.6

# Same assay, conditions: listed as 9; read-out: EC50
row,Molecule,EC50 [µM]
1,Cc1ccc2nc(CN3CCC(c4ccccc4F)CC3)n(C)c2c1 [Entry 279],2.17

# Same assay, conditions: mGluR2 potentiator screen, Table 7; read-out: EC50
row,Molecule,EC50 [µM]
1,Cn1c(CN2CCC(c3ccc(C(F)(F)F)cc3)CC2)nc2ccccc21 [compound 166],0.0778
2,Cn1c(CN2CCC(c3ccc(F)cc3)C2)nc2ccccc21 (centres unmarked) [compound 155],1.65
3,CCCCOc1ccc(Cl)cc1C1CCN(Cc2nc3ccccc3n2C)CC1 [compound 185],0.138
4,Cn1c(CN2CCC(c3ccccc3Cl)C2)nc2ccccc21 (centres unmarked) [compound 152],0.371
5,COc1ccc(OC)c(C2CCN(Cc3nc4ccccc4n3C)C2)c1 (centres unmarked) [compound 154],0.285
6,COCCn1c(CN2CCC(c3cc(Cl)ccc3OCC3CCC3)CC2)nc2ccccc21 [compound 196],0.719
7,FCn1c(CN2CCC(c3cc(Cl)ccc3OCCC3CC3)CC2)nc2ccccc21 [compound 188],0.566
8,Cn1c(CN2CCC(c3ccccc3Cl)CC2)nc2c(Br)cccc21 [compound 160],0.862
9,FCCn1c(CN2CCC(c3cc(Cl)ccc3OCC3CCCCO3)CC2)nc2ccccc21 (centres unmarked) [compound 217],1.18

# Same assay, conditions: read-out: EC50
row,Molecule,EC50 [µM]
1,Cn1c(CN2CCC3(CC2)CNc2ccc(Cl)cc23)nc2ccccc21 [compound 128],> 8.98
2,Cn1c(CN2CCC(c3cccc(F)c3)CC2)nc2ccccc21 [compound 430],3.31
3,COc1cc(C(F)(F)F)ccc1C1CCN(Cc2nc3ccccc3n2C2CC2)CC1 [compound 359],0.94
4,COC(=O)CCCC(=O)N1CC2(CCN(Cc3nc4ccccc4n3C)CC2)c2cc(C)ccc21 [compound 32],1.85
5,COc1ccccc1C1CCN(Cc2nc3cc(N)ccc3n2C)CC1 [compound 281],1.51
6,Cn1c(CN2CCC(c3ccc(C(F)(F)F)cc3)CC2)nc2cccc(F)c21 [compound 341],0.633
7,COc1ccccc1C1CCN(Cc2nc3cc(F)ccc3n2C)CC1 [compound 284],0.0394
8,Cn1c(CN2CCC3(CC2)CN(C(=O)c2ccoc2)c2ccccc23)nc2ccccc21 [compound 50],4.93
9,COCCn1c(CN2CCC(c3cc(C(F)(F)F)ccc3F)CC2)nc2ccccc21 [compound 326],0.263
10,2-(2-((4-(2-fluorophenyl)piperidin-1-yl)methyl)-1-methyl-1H-benzo[d]imidazol-5-yl)propan-2-ol [Entry 298],2.53
11,COc1cccc(C2CCN(Cc3nc4cc(F)ccc4n3C)CC2)c1 [compound 378],0.568
12,Cc1ccc2c(c1)C1(CCN(Cc3nc4ccccc4n3C)CC1)CN2C(=O)C(C)C [compound 24],1.62
13,CCCC(=O)N1CC2(CCN(Cc3nc4ccccc4n3C)CC2)c2ccccc21 [compound 64],1.41
14,COc1cccc(C2CCN(Cc3nc4ccccc4n3C)CC2)c1 [compound 65],0.241
15,Cn1c(CN2CCC(c3ccc(F)cc3F)CC2)nc2ccccc21 [compound 422],0.0146
16,Cn1c(CN2CCC(c3cccc(C(F)(F)F)c3)CC2)nc2c(F)cccc21 [compound 396],0.123
17,Cc1ccc2nc(CN3CCC(c4ccccc4F)CC3)n(C)c2c1 [Entry 279],0.327
18,C#CCOc1ccc(Cl)cc1C1CCN(Cc2nc3ccccc3n2CCOC)CC1 [compound 239],0.079
19,C[C@@H]1CN(Cc2nc3ccccc3n2C)CC[C@@H]1c1ccc(Cl)cc1F (relative stereo) [compound 461],0.0303
20,"CN1CC2(CCN(Cc3nc4ccccc4n3C)CC2)c2cc(Br)ccc21 [Entry 104, 5-Bromo-1-methyl-1'-[(1-methyl-1H-benzimidazole-2-yl)methyl]-1,2-dihydrospiro[indole-3,4'-piperidine]]",1.41
21,CCN1CC2(CCN(Cc3nc4ccccc4n3C)CC2)c2ccccc21 [compound 110],4.98
22,Cn1c(CN2CCC3(CC2)CN(C(=O)c2ccco2)c2ccccc23)nc2ccccc21 [compound 63],4.51
23,2-[4-(2-Methoxy-phenyl)-piperidin-1-ylmethyl]-1-methyl-1H-benzoimidazol-4-ylamine [Entry 264],5.21
24,Cn1c(CN2CCC3(CC2)CN(CC2CC2)c2ccc(F)cc23)nc2ccccc21 [compound 138],8.59
25,Cn1c(CN2CCC(c3ccc(C(F)(F)F)cc3)CC2)nc2cc(C#N)ccc21 [compound 317],0.0907
26,CCOC(=O)CCC(=O)N1CC2(CCN(Cc3nc4ccccc4n3C)CC2)c2cc(C)ccc21 [compound 33],1.35

row,Molecule,EC50 [µM]
1,Cn1c(CN2CCC(c3ccc(C(F)(F)F)cc3)C(O)C2)nc2ccccc21 (centres unmarked) [compound 428],1.12
2,Cn1c(CN2CCC(c3ccccc3F)CC2)nc2cccc(F)c21 [compound 344],0.0206
3,CCC(C)CN1CC2(CCN(Cc3nc4ccccc4n3C)CC2)c2cc(C)cc(C)c21 (centres unmarked) [compound 148],4.73
4,Cn1c(CN2CCCC(c3ccccc3)CC2)nc2ccccc21 (centres unmarked) [compound 305],0.235
5,COc1ccccc1[C@]1(C)CCN(Cc2nc3ccccc3n2C2CC2)C[C@@H]1C [compound 322],9.93
6,CC1=C(c2ccccc2)C(C)CN(Cc2nc3ccccc3n2C)C1 (centres unmarked) [compound 440],2.85
7,Cn1c(CN2CCC(c3cc(F)cc(F)c3)CC2)nc2cc(F)ccc21 [compound 376],0.299
8,COCCn1c(CN2CC[C@H](c3ccccc3OC)[C@H](C)C2)nc2ccccc21 (relative stereo) [compound 336],2.36
9,COCn1c(CN2CCC(c3ccc(F)cc3)CC2)nc2ccccc21 [compound 365],1.67
10,COCCn1c(CN2CCC(c3ccccc3C(F)(F)F)CC2)nc2ccccc21 [compound 250],0.545
11,"Cn1c(CN2CCC(c3ccccc3F)CC2)nc2ccc(-c3ccccc3)cc21 [Entry 276, 2-((4-(2-Fluorophenyl)piperidin-1-yl)methyl)-1-methyl-6-phenyl-1H-benzo[d]imidazole]",0.204
12,Cn1c(CN2CCCC(c3ccc(C(F)(F)F)cc3)CC2)nc2ccccc21 (centres unmarked) [compound 303],0.868
13,FC(F)(F)c1ccccc1C1CCN(Cc2nc3ccccc3n2C2CC2)CC1 [compound 245],3.35
14,C[C@@H]1CN(Cc2nc3ccccc3n2C)CC[C@@H]1c1ccc(C(F)(F)F)cc1C(F)(F)F (relative stereo) [compound 466],0.161
15,Cn1c(CN2CCC(c3ccccc3OC3CCOCC3)CC2)nc2ccccc21 [compound 99],2.12
16,COc1ccc(Cl)cc1C1CCN(Cc2nc3ccccc3n2CCF)CC1 [compound 233],0.264
17,Cn1c(CN2CCC(c3ccc(OC(F)(F)F)cc3)CC2)nc2ccccc21 [compound 340],0.2
18,Cn1c(CN2CCC(F)(c3ccc(C(F)(F)F)cc3)CC2)nc2ccccc21 [compound 433],0.122
19,CCOCCOc1ccccc1C1CCN(Cc2nc3ccccc3n2C)CC1 [compound 89],1.75
20,CC(C)C(=O)N1CC2(CCN(Cc3nc4ccccc4n3C)CC2)c2cc(F)ccc21 [compound 17],3.31
21,Cn1c(CN2CCC(c3ccccc3F)CC2)nc2ccccc21 [compound 79],0.021
22,Cn1c(CN2CCC(c3ccc(F)cc3F)CC2)nc2cc(C#N)ccc21 [compound 427],0.14
23,Cn1c(CN2CCC(c3ccccc3F)CC2)nc2cc(F)ccc21 [compound 352],0.0885
24,Cc1ccc2c(c1)nc(CN1CCC(c3ccccc3F)CC1)n2C [compound 273],0.0797
25,CCC(C)CN1CC2(CCN(Cc3nc4ccccc4n3C)CC2)c2cc(C)ccc21 (centres unmarked) [compound 141],5.67
